# Laboratory results from article PMC7412453, “SAR:s for the Antiparasitic Plant Metabolite Pulchrol. 1. The Benzyl Alcohol Functionality” (Molecules, 2020).
# Like-named read-outs stand apart in the source and are kept apart here.
# Legend:
# T. cruzi epimastigotes = test: Trypanocidal activity against T. cruzi epimastigotes (XTT); type: cell-based, Trypanosoma cruzi; conditions: for IC50: Trypanosoma cruzi, read-out: T. cruzi IC50; for selectivity ratio at 72 h: mouse (RAW 264.7 cells) / Trypanosoma cruzi (epimastigotes), RAW cell IC50 / T. cruzi IC50, read-out: T. cruzi SI (selectivity index, cytotoxicity/anti-protozoal activity)
# Method: Trypanocidal activity was determined according to Muelas-Serrano with some modifications. […] Benznidazol (3.1–100 μg/mL) was used as the control drug. Assays were performed in triplicates.
# [1] = test system: L. brasiliensis promastigotes; test: Leishmanicidal activity against L. brasiliensis promastigotes (XTT); conditions: for IC50: 72 h, read-out: L. brasiliensis IC50
# Method: (§1) Evaluations against Leishmania parasites: Promastigotes of Leishmania-Leishmania: L. amazonensis, Clone 1, NHOM-BR-76-LTB-012 (Lma, donated by the Paul Sabatier Université, France) and Leishmania-Viannia: L. braziliensis M2904 C192 RJA (M2904, donated by Dr. Jorge Arévalo from Universidad Peruana Cayetano Heredia, Peru). All strains were cultured in Schneider’s insect medium, (pH 6.2) supplemented with 10% FBS and incubated at 26 °C. Medium changes were made every 72 h to maintain a viable parasitic population. Leishmanicidal activity was determined according to Williams with some modifications. Samples were dissolved in DMSO (maximum final concentration 1%) at 10 mg/mL. Promastigotes in logarithmic phase of growth, at the concentration 3 × 10^6 parasites/mL, were distributed (100 μL/well) in 96-well flat bottom microtiter plates. Samples with different concentrations (3.1–100 μg/mL) were added (100 μL). […] Assays were performed in triplicates. The microwell plates were incubated for 72 h at 26 °C. After incubation, a solution of XTT (1 mg/mL) in PBS (pH 7.0 at 37 °C) with PMS (0.06 mg/mL) was added (50 μL/well), and incubated for 3 h at 26 °C. The optical density of each well was measured and the IC50 values calculated.
# [2] = test system: L. amazoniensis promastigotes; test: Leishmanicidal activity against L. amazoniensis promastigotes (XTT); conditions: for IC50: Leishmania amazonensis, 72 h, read-out: L. amazoniensis IC50
# Method: as §1, with “All” for “Evaluations against Leishmania parasites: Promastigotes of Leishmania-Leishmania: L. amazonensis, Clone 1, NHOM-BR-76-LTB-012 (Lma, donated by the Paul Sabatier Université, France) and Leishmania-Viannia: L. braziliensis M2904 C192 RJA (M2904, donated by Dr. Jorge Arévalo from Universidad Peruana Cayetano Heredia, Peru). All”
# [3] = Cytotoxicity in RAW cells (Resazurin); type: cell-based, murine; conditions: mouse
# Method: Evaluations against RAW cells: The Raw 264.7 murine macrophage cell line was purchased from the American Type Culture Collection (ATCC-TIB71). The cells were maintained in DMEM-HG medium supplemented with 10% fetal bovine serum, 100 U/mL of penicillin and 100 μg/mL of streptomycin, and sodium bicarbonate (2.2 g/L) in humidified atmosphere at 37 °C with 5% CO2. Samples were prepared as described above and added (in 100 μL DMSO) at different concentrations (6.2–200 μg/mL). Medium blank, control drugs and cell growth controls were included to evaluate cell viability. The plates were incubated for 72 h at 37 °C with 5% CO2. After incubation for the indicated time, the cells were washed, after which 10 μL of Resazurin reagent (2.0 mM) was added. They were further incubated at 37 °C for 3 h in a humidified incubator. The IC50 values were assessed using a fluorometric reader (540 nm excitation, 590 nm emission) and the Gen5 software. All assays were performed in triplicate.
# [4] = epimastigotes, 72 h at 26 °C, XTT, triplicates
# [5] = RAW cells, 72 h at 37 °C, Resazurin, triplicate, read-out: Cytotoxicity IC50
# [6] = L. brasiliensis SI (selectivity index, cytotoxicity/anti-protozoal activity), RAW cell IC50 / L. brasiliensis IC50
# [7] = L. amazoniensis SI (selectivity index, cytotoxicity/anti-protozoal activity), RAW cell IC50 / L. amazoniensis IC50
Structure (SMILES),IC50 (T. cruzi epimastigotes; [4]),selectivity ratio at 72 h (T. cruzi epimastigotes),selectivity ratio at 72 h [1],IC50 [1],selectivity ratio at 72 h [2],IC50 [2],IC50 at 72 h [3],"IC50 at 72 h [3, 5]","selectivity ratio at 72 h [1, 6]","selectivity ratio at 72 h [2, 7]","IC50 at 72 h ([3]; RAW 264.7 macrophage cells (ATCC-TIB71), RAW cells, 72 h at 37 °C, Resazurin, triplicate, read-out: Cytotoxicity IC50)",IC50 (T. cruzi epimastigotes; 72 h)
"COc1ccc2c(c1)-c1cc(C)ccc1C(C)(C)O2 [3a, 2-Methoxy-6,6,9-trimethyl-6H-benzo[c]chromene]",51.1 ± 17.7 µM,2,1.4,69.6 ± 5.9 µM,1.2,85.3 ± 5.9 µM,99.5 ± 22 µM,–,–,–,–,–
"COc1ccc2c(c1)-c1cc(COC(C)C)ccc1C(C)(C)O2 [3d, 9-(Isopropoxymethyl)-2-methoxy-6,6-dimethyl-6H-benzo[c]chromene]",12.9 ± 0.3 µM,2.5,0.9,35.2 ± 3.2 µM,0.9,35.2 ± 3.8 µM,–,32 ± 0.3 µM,–,–,–,–
"COc1ccc2c(c1)-c1cc(COC(=O)CCC3CCCC3)ccc1C(C)(C)O2 [4h, (2-Methoxy-6,6-dimethyl-6H-benzo[c]chromen-9-yl)methyl 3-cyclopentylpropanoate]",8.4 ± 3.3 µM,6.1,0.4,122 ± 27.9 µM,1.6,30.9 ± 3 µM,50.7 ± 17.7 µM,–,–,–,–,–
"CCCC(=O)OCc1ccc2c(c1)-c1cc(OC)ccc1OC2(C)C [4d, (2-Methoxy-6,6-dimethyl-6H-benzo[c]chromen-9-yl)methyl butyrate]",16.2 ± 3.2 µM,6.4,–,57.8 ± 2.4 µM,–,79.3 ± 9.4 µM,103 ± 35.3 µM,–,1.8,1.3,–,–
"COc1ccc2c(c1)-c1cc(COC(C)=O)ccc1C(C)(C)O2 [4a, (2-Methoxy-6,6-dimethyl-6H-benzo[c]chromen-9-yl)methyl acetate]",14.4 ± 1.6 µM,2.3,–,28.8 ± 0.3 µM,–,26.9 ± 0.6 µM,32.7 ± 22.4 µM,–,1.1,1.2,–,–
"COc1ccc2c(c1)-c1cc(COC(=O)C3CCCCC3)ccc1C(C)(C)O2 [4i, (2-Methoxy-6,6-dimethyl-6H-benzo[c]chromen-9-yl)methyl cyclohexanecarboxylate]",13.1 ± 0.5 µM,3.9,2.1,24.3 ± 0.8 µM,1.3,40.5 ± 8.7 µM,51.3 ± 8.2 µM,–,–,–,–,–
"COc1ccc2c(c1)-c1cc(CNC(C)C)ccc1C(C)(C)O2 [3f, N-((2-Methoxy-6,6-dimethyl-6H-benzo[c]chromen-9-yl)methyl)propan-2-amine]",70.6 ± 9.6 µM,0.4,–,83.5 ± 32.1 µM,–,67.8 ± 13.8 µM,29.5 ± 9.6 µM,–,0.4,0.4,–,–
"CCCCCCCCCCCCCCCCOP(=O)([O-])OCC[N+](C)(C)C [Miltefosine, reference compound]",–,–,–,13 ± 1.2 µM,–,–,–,–,–,–,76.6 ± 3.2 µM,–
"COc1ccc2c(c1)-c1cc(C=O)ccc1C(C)(C)O2 [5a, 2-Methoxy-6,6-dimethyl-6H-benzo[c]chromene-9-carbaldehyde]",24.2 ± 4.1 µM,1.6,–,24.2 ± 7.5 µM,–,29.8 ± 11.2 µM,38.8 ± 3.7 µM,–,1.6,1.3,–,–
"COc1ccc2c(c1)-c1cc(C(=N)NO)ccc1C(C)(C)O2 [compound 6, N-hydroxy-2-methoxy-6,6-dimethyl-6H-benzo[c]chromene-9-carboximidamide]",33.4 ± 14.9 µM,0.8,–,52 ± 18.6 µM,–,52 ± 16.7 µM,26.4 ± 1.5 µM,–,0.5,0.5,–,–
"COc1ccc2c(c1)-c1cc(CNCC(C)C)ccc1C(C)(C)O2 [3g, N-((2-Methoxy-6,6-dimethyl-6H-benzo[c]chromen-9-yl)methyl)-2-methylpropan-1-amine]",15.4 ± 4 µM,0.8,–,25.8 ± 6.2 µM,–,15.4 ± 3.1 µM,12.3 ± 1.2 µM,–,0.5,0.8,–,–
"COc1ccc2c(c1)-c1cc(CNCCC(C)C)ccc1C(C)(C)O2 [3h, N-((2-Methoxy-6,6-dimethyl-6H-benzo[c]chromen-9-yl)methyl)-3-methylbutan-1-amine]",5.9 ± 1.2 µM,1.3,–,15.9 ± 0.9 µM,–,17.7 ± 7.4 µM,7.4 ± 2.4 µM,–,0.5,0.4,–,–
"COc1ccc2c(c1)-c1cc(COC(=O)c3ccco3)ccc1C(C)(C)O2 [4k, (2-Methoxy-6,6-dimethyl-6H-benzo[c]chromen-9-yl)methyl furan-2-carboxylate]",3.8 ± 0.3 µM,7.9,–,12.8 ± 0.1 µM,–,12.8 ± 1.8 µM,30.5 ± 3.6 µM,–,2.4,2.4,–,–
"COc1ccc2c(c1)-c1cc(C(C)=O)ccc1C(C)(C)O2 [5b, 1-(2-Methoxy-6,6-dimethyl-6H-benzo[c]chromen-9-yl)ethan-1-one]",21.2 ± 9.2 µM,1.5,–,28.3 ± 7.1 µM,–,43.2 ± 8.2 µM,31.9 ± 7.1 µM,–,1.1,0.7,–,–
"COc1ccc2c(c1)-c1cc(COC(=O)CC(C)C)ccc1C(C)(C)O2 [4e, (2-Methoxy-6,6-dimethyl-6H-benzo[c]chromen-9-yl)methyl 3-methylbutanoate]",4.2 ± 1.1 µM,6.7,–,13.1 ± 0.4 µM,–,14.5 ± 0.1 µM,28.2 ± 9 µM,–,2.2,1.9,–,–
"COc1ccc2c(c1)-c1cc(C(N)=O)ccc1C(C)(C)O2 [5e, 2-Methoxy-6,6-dimethyl-6H-benzo[c]chromene-9-carboxamide]",134 ± 38.8 µM,0.4,–,145 ± 43.1 µM,–,121 ± 21.2 µM,49.8 ± 17.7 µM,–,0.3,0.4,–,–
"CCCCCC(=O)OCc1ccc2c(c1)-c1cc(OC)ccc1OC2(C)C [4g, (2-Methoxy-6,6-dimethyl-6H-benzo[c]chromen-9-yl)methyl hexanoate]",22.8 ± 5.7 µM,2.3,1.9,27.7 ± 0.3 µM,1.2,42.3 ± 8.7 µM,–,52.1 ± 8.1 µM,–,–,–,–
"COc1ccc2c(c1)-c1cc(C(=O)O)ccc1C(C)(C)O2 [5c, 2-Methoxy-6,6-dimethyl-6H-benzo[c]chromene-9-carboxylic acid]",56.3 µM,4.4,–,65.1 ± 16.5 µM,–,199 µM,246 ± 24.6 µM,–,3.8,1.2,–,–
"C=CC(=O)OCc1ccc2c(c1)-c1cc(OC)ccc1OC2(C)C [4j, (2-Methoxy-6,6-dimethyl-6H-benzo[c]chromen-9-yl)methyl acrylate]",7.4 ± 0.9 µM,> 5,–,5.7 ± 0.5 µM,–,6.9 ± 1.7 µM,40.1 ± 12.6 µM,–,> 5,> 5,–,–
"O=C(Cn1ccnc1[N+](=O)[O-])NCc1ccccc1 [Benznidazole, reference compound]",–,3.9,–,–,–,–,–,74.7 ± 9.1 µM,–,–,–,19.2 ± 7.7 µM
